Experimental data: the supplement of paper PMC10307832

Tests used:
Assay in all cases: relative viability (nuclei count vs DMSO), 5 days (fraction); higher = more cells survive
[1] = compound: CC1=C(C=C(C=C1)NC(=O)C2=CC(=CC=C2)C(C)(C)C#N)NC3=CC4=C(C=C3)N=CN(C4=O)C [AZ628] + Cc1cc(Nc2cc(N3CCN(C)CC3)nc(Sc3ccc(NC(=O)C4CC4)cc3)n2)n[nH]1 [Tozasertib] (partner 0.1 µM)
In short: (§1)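 Lung cancer cell lines were seeded in 1536-well plates and dosed by pin tool the next day, with either a single drug or a fixed anchor-drug dose combined with five library-drug doses (not always all listed) spaced in √10 steps. Five days later, one step fixed the cells and stained their nuclei (final 0.05% Triton X-100, 1% formaldehyde, 1 ug/ml Hoechst), and nuclei were counted on 4× images. Relative viability is the nuclei count in treated wells divided by the count in vehicle wells, and each value is the median of duplicate plates.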

[2] = compound: CC1=C(C=C(C=C1)NC(=O)C2=CC(=CC=C2)C(C)(C)C#N)NC3=CC4=C(C=C3)N=CN(C4=O)C [AZ628] + CC(C)C[C@H](NC(=O)[C@H](Cc1ccccc1)NC(=O)c1cnccn1)B(O)O [Bortezomib] (partner 0.002 µM)
In short: as §1

[3] = compound: C[As](C)SC[C@H](NC(=O)CC[C@H](N)C(=O)O)C(=O)NCC(=O)O [Darinaparsin] + Nc1nc2[nH]cc(CCc3ccc(C(=O)N[C@@H](CCC(=O)O)C(=O)O)cc3)c2c(=O)[nH]1 [Pemetrexed] (partner 0.2 µM)
In short: as §1

[4] = compound: C[As](C)SC[C@H](NC(=O)CC[C@H](N)C(=O)O)C(=O)NCC(=O)O [Darinaparsin] + CC1(C)CCC(c2ccc(Cl)cc2)=C(CN2CCN(c3ccc(C(=O)NS(=O)(=O)c4ccc(N[C@H](CCN5CCOCC5)CSc5ccccc5)c(S(=O)(=O)C(F)(F)F)c4)cc3)CC2)C1 [Navitoclax] (partner 0.5 µM)
In short: as §1

Cell Line | relative viability ([1]; first compound 0.08 µM) | relative viability ([1]; first compound 0.253 µM) | relative viability ([1]; first compound 0.8 µM) | relative viability ([1]; first compound 2.53 µM) | relative viability ([1]; first compound 8 µM) | relative viability ([2]; first compound 0.08 µM) | relative viability ([2]; first compound 0.253 µM) | relative viability ([2]; first compound 0.8 µM) | relative viability ([2]; first compound 2.53 µM) | relative viability ([2]; first compound 8 µM) | relative viability ([3]; first compound 0.08 µM) | relative viability ([3]; first compound 0.8 µM) | relative viability ([3]; first compound 2.53 µM) | relative viability ([3]; first compound 8 µM) | relative viability ([4]; first compound 0.08 µM) | relative viability ([4]; first compound 0.8 µM) | relative viability ([4]; first compound 2.53 µM) | relative viability ([4]; first compound 8 µM)
HCC-78 | 0.445 | 0.383 | 0.463 | 0.346 | 0.465 | 0.675 | 0.457 | 0.586 | 0.487 | 0.623 | 0.953 | 0.884 | 0.838 | 0.964 | 0.841 | 0.729 | 0.842 | 0.84
CAL-12T | 0.343 | 0.366 | 0.288 | 0.292 | 0.182 | 0.948 |  | 0.747 | 0.835 | 0.779 | 1.65 | 1.08 | 1.17 | 1.38 | 1.48 | 1.11 | 1.27 | 1.37
NCI-H3122 | 0.392 | 0.339 | 0.345 | 0.254 | 0.189 | 0.987 | 0.887 | 0.723 | 0.696 | 0.444 | 0.195 | 0.193 | 0.197 | 0.222 | 1.11 | 1.08 | 1.06 | 1.11
NCI-H596 | 0.768 | 0.827 | 0.956 | 0.886 | 0.848 | 1 | 1.03 | 1.09 | 1.09 | 1.27 | 0.513 | 0.533 | 0.479 | 0.508 | 1.3 | 1.11 | 0.83 | 1.23
NCI-H1666 | 0.605 | 0.567 | 0.565 | 0.551 | 0.479 | 0.812 | 0.715 | 0.567 | 0.621 | 0.705 | 0.91 | 0.854 | 0.984 | 0.955 | 1.09 | 0.938 | 1.23 | 1.09
COR-L23 | 0.186 | 0.15 | 0.157 | 0.146 | 0.12 | 1.04 | 1.04 | 0.97 | 1.14 | 0.645 | 0.198 | 0.209 | 0.18 | 0.2 | 1.38 | 1.12 | 0.945 | 1.16
NCI-H460 | 0.449 | 0.186 | 0.146 | 0.382 | 0.053 | 1.18 | 1.13 | 0.8 | 0.994 | 0.952 | 0.0581 | 0.0587 | 0.0655 | 0.0643 |  | 1.05 | 0.978 | 1.91
LC-2-ad | 0.445 | 0.427 | 0.548 | 0.392 | 0.354 | 1.06 | 0.926 | 0.972 | 0.972 | 0.751 | 0.283 | 0.272 | 0.27 | 0.289 | 0.551 | 0.324 | 0.421 | 0.487
BEN | 0.511 | 0.498 | 0.444 | 0.471 | 0.383 | 0.882 | 0.653 | 0.666 | 0.813 | 0.616 | 0.873 | 0.848 | 0.818 | 0.859 | 0.0561 | 0.0673 | 0.0517 | 0.0548
NCI-H1651 | 0.726 | 0.656 | 0.579 | 0.653 | 0.43 | 1.03 | 0.903 | 0.897 | 0.953 | 0.887 | 0.621 | 0.594 | 0.569 | 0.748 | 1.11 | 1.01 | 0.863 | 0.999
EKVX | 0.396 | 0.381 | 0.392 | 0.467 | 0.233 | 1.17 | 1.11 | 1.21 | 1.09 | 0.603 | 0.458 | 0.385 | 0.388 | 0.412 | 1.14 | 0.825 | 0.918 | 1.15
COR-L 105 | 0.387 | 0.374 | 0.359 | 0.315 | 0.376 | 1.01 | 0.978 | 0.885 | 0.867 | 0.544 | 1.39 | 1.21 | 0.913 | 1.27 | 0.883 | 0.709 |  | 0.82
NCI-H1650 | 0.469 | 0.494 | 0.337 | 0.368 | 0.206 | 0.165 | 0.203 | 0.18 | 0.203 | 0.214 | 0.426 | 0.369 | 0.342 | 0.396 | 1.7 | 1.17 | 1.14 | 1.28
HCC-15 | 0.389 | 0.491 | 0.273 | 0.337 | 0.135 | 1.06 | 0.951 | 0.873 | 0.866 | 0.661 | 0.223 | 0.221 | 0.211 | 0.213 | 0.893 | 0.7 | 0.651 | 0.83
ChaGo-K-1 | 0.241 | 0.231 | 0.218 | 0.212 | 0.171 | 0.987 |  | 0.85 | 1.11 | 1.15 | 0.251 | 0.266 | 0.271 | 0.263 | 1.19 | 0.905 | 1.05 | 0.956
